Source: patent US5863773A, “Antifungal corynecandin” (Abbott Laboratories, priority 1997, dated 1999)
In brackets after ≈: the same amount, converted by molar mass. Numbered stars: 1 amine (or outer) side, 2 acyl side, 3 side chain; on linkers, the order of the positions; unused ones are H or OH. Bridge positions count the residues as written; N and C are the ends. Square brackets hold non-standard residues; d marks the D form. Peptide text beside a SMILES is read from it. * marks the point of attachment. Orn(4R-OH,5R-OH) = O=C([C@H](C[C@@H](O)[C@@H](O)N[*:3])N[*:1])[*:2]; hTyr(3S-OH,4S-OH) = N[C@H](C(=O)O)[C@H](O)[C@@H](O)c1ccc(O)cc1; Pro(3S-OH,4S-Me) = C[C@H]1CN[C@H](C(=O)O)[C@H]1O; Benzoyl(4-octyloxy) = CCCCCCCCOc1ccc(C(=O)*)cc1; Hyp = O=C(O)[C@@H]1C[C@@H](O)CN1

Tests used:
fungal organisms = assay: Microtiter broth dilution assay of antifungal activity (MIC) in the presence and absence of 0.8M sorbitol; assay type: cell-based; details: for MIC: 48 h, read-out: Broth Dilution Assay MIC at 2 day growth, w/o sorbitol; for Broth Dilution Assay MIC at 2 day growth, with sorbitol: with 0.8M sorbitol; for Broth Dilution Assay MIC at 2 day growth, with sorbitol / Broth Dilution Assay MIC at 2 day growth, w/o sorbitol: final concentration of cells 2 × 10^5 organisms/ml; for Broth Dilution Assay MIC at 2 day growth, w/o sorbitol: without sorbitol
Description: Minimal inhibitory concentrations (MICs) of corynecandin related compounds in the microtiter broth dilution in the presence and absence of 0.8M sorbitol assay were determined by a broth dilution assay described by Frost, D., Brandt, K., Cugier, D., and Goldman, R. in J. Antibiotics 48: 306-310 (1995), which is incorporated herein by reference.
^a Assay conducted as described in Frost et al., ibid, except final
concentration of cells was 2 × 10^5 organisms/ml.

(1,3)-β-Glucan Synthase = target: T1, (1,3)-β-Glucan Synthase (Candida albicans, UniProt A0A1D8PCT0); assay: In vitro inhibition of (1,3)-β-glucan synthase activity; assay type: biochemical
T1 construct: integral plasma membrane protein
Source text: The fungal cell wall serves as a protective barrier and is essential for viability in a hypotonic environment. (1,3)-β-Glucan is a component of the Candida albicans cell wall, and the enzyme that biosynthesizes this polymer, glucan synthase, is not present in higher eukaryotes. (Glucan synthase is an integral plasma membrane protein that catalyzes polymerization of uridine diphosphate-glucose (UDP-Glc) into β-glucan.) Accordingly, glucan synthase represents an ideal target for the development of antifungal agents.
The assay was conducted as described by Frost, D., Brandt, K. Capobioanco, and Goldman, R., Microbiology 140: 2239-2246 (1994) which is incorporated herein by reference.

T1 sequence (A0A1D8PCT0 1-1897): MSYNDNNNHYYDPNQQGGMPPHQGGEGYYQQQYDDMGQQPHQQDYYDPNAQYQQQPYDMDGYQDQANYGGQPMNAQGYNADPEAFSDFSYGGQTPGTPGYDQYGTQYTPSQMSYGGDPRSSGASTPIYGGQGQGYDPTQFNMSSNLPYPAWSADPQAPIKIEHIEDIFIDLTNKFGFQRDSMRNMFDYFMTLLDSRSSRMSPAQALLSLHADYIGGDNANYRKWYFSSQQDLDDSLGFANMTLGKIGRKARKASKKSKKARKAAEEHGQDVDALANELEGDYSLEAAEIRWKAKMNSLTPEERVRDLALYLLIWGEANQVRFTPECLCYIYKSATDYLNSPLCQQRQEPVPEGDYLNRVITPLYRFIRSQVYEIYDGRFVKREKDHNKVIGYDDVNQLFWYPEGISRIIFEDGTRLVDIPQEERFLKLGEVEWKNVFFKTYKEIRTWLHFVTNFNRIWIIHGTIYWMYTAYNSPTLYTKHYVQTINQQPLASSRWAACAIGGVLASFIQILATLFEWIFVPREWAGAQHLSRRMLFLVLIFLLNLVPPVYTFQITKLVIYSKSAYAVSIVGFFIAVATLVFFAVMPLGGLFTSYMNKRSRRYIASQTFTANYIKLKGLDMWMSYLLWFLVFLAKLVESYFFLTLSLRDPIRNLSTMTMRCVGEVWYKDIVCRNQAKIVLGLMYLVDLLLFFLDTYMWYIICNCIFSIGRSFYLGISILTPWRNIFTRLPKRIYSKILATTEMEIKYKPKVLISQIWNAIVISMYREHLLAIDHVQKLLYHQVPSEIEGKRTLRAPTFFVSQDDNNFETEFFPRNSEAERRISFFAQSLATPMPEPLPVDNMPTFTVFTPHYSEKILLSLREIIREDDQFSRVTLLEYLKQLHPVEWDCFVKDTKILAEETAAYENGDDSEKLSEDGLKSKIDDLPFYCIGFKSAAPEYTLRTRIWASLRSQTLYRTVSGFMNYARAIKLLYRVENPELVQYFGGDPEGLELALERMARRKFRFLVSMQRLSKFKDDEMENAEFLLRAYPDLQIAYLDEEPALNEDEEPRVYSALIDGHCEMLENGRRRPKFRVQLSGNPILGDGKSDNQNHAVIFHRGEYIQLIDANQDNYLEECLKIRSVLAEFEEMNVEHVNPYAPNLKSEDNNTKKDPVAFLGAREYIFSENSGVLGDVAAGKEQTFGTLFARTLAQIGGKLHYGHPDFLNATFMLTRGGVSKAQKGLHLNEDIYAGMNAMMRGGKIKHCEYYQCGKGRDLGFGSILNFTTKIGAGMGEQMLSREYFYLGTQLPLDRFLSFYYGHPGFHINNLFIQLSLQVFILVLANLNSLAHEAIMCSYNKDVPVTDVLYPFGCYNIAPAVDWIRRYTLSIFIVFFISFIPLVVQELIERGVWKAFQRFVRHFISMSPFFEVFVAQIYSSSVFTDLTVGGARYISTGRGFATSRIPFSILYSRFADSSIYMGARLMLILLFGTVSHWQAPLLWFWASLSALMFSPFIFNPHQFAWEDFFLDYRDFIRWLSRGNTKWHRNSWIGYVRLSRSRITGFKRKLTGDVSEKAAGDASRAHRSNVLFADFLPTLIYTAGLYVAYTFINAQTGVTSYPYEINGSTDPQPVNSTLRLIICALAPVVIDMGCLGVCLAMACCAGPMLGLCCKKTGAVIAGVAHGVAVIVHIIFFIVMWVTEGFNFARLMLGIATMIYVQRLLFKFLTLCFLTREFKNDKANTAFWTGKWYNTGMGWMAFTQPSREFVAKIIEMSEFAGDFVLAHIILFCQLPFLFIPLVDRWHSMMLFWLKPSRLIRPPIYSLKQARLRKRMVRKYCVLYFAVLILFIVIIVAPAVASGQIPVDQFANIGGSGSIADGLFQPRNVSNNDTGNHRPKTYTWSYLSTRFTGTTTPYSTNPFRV
T1 sequence (O42825 1-195 partner): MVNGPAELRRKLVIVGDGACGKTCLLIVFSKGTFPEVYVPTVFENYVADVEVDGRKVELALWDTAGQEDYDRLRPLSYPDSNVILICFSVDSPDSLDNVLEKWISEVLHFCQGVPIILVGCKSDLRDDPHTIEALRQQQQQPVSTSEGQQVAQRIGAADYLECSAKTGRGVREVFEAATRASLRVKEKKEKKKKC

| Compound | MIC (fungal organisms) [µg/mL] | Rescue of cell growth by sorbitol (fungal organisms; cells treated with compound, sorbitol present) | Broth Dilution Assay MIC at 2 day growth, with sorbitol (fungal organisms) [µg/mL] | Broth Dilution Assay MIC at 2 day growth, w/o sorbitol (fungal organisms) [µg/mL] | In Vitro Inhibition of (1,3)-β-Glucan Synthase Activity IC50 ((1,3)-β-Glucan Synthase) [µg/mL] |
| --- | --- | --- | --- | --- | --- |
| C[C@@H]1[C@H](O)[C@@H](C)/C=C/C=C/C=C/C=C/C=C/C=C/C=C/[C@H](O[C@@H]2O[C@H](C)[C@@H](O)[C@H](N)[C@@H]2O)C[C@@H]2O[C@](O)(C[C@@H](O)C[C@@H](O)[C@H](O)CC[C@@H](O)C[C@@H](O)CC(=O)O[C@H]1C)C[C@H](O)[C@H]2C(=O)O [Amphotericin B] | 480 (≈ 519 µM) |  |  |  |  |
| CCCCCCCCOc1ccc(C(=O)N[C@H]2C[C@@H](O)[C@@H](O)NC(=O)[C@@H]3[C@@H](O)[C@@H](C)CN3C(=O)[C@H]([C@@H](C)O)NC(=O)[C@H]([C@H](O)[C@@H](O)c3ccc(O)cc3)NC(=O)[C@@H]3C[C@@H](O)CN3C(=O)[C@H]([C@@H](C)O)NC2=O)cc1 [Cilofungin] ({Benzoyl(4-octyloxy)}-[Orn(4R-OH,5R-OH)]T[Hyp][hTyr(3S-OH,4S-OH)]T[Pro(3S-OH,4S-Me)]; lactam 1-C) | 980 (≈ 951 µM) |  |  |  |  |
| CCCCC/C=C\C=C\C(=O)OC[C@H]1O[C@@H](O[C@H]2[C@H](OC(=O)/C(C)=C/C=C/CC(O)C(C)CC)[C@@H](O)[C@H](c3c(O)cc(O)cc3CO)O[C@@H]2CO)[C@H](O)[C@@H](O)[C@H]1O (stereo partly shown) [Corynecandin] | 980 (≈ 1210 µM) | Sorbitol could rescue the growth of cells |  |  |  |
| CCC(O)/C=C/C=C/C=C/C(=O)OC[C@H]1O[C@@H](O[C@H]2[C@H](OC(=O)/C=C/C=C/CC(O)/C(C)=C/C=C/CCC(C)CC)[C@@H](O)[C@@]3(OCc4cc(O)cc(O)c43)O[C@@H]2CO)[C@H](O)[C@@H](O)[C@H]1O (stereo partly shown) [Papulacandin B] |  |  | > 250000 | 1960 | 1.9 |
| Fusacandin |  |  | > 250000 | 1960 | 25.0 |
